The conditions of series [1]: 298 K; 101.33 kPa; Liquid; Vibrating tube method.
A short description of series [2]: refractive index (Na D-line) (dimensionless). As to conditions: 293 K; 101.33 kPa; Liquid; Standard Abbe refractometry.

The term mass density denotes the mass of a sample divided by its volume. For orientation: refractive index means a measure of how strongly the sample bends light.

Numbers after ± are expanded uncertainties.

As for `FC(F)(F)C(F)(F)C(F)(F)C(F)(F)C(F)(F)C(F)(F)C(F)(F)C(F)(F)F` [octadecafluorooctane], in series [1], the mass density is given as 1756 ± 1 kg/m3. In series [2], the refractive index amounted to 1.268 ± 0.001.

The record behind these values is the NIST ThermoML archive (doi:10.1021/acs.jced.7b00657).
